Here are results for 9 compounds from article PMC5557808 (Nature Communications, 2017).

The target of data set [1] is T1, Leucine aminopeptidase (AP) (Sus scrofa, UniProt P15145).
T1 construct: Leucine aminopeptidase (AP; Mw = 280 kDa) from porcine kidney; purchased Sigma-Aldrich Chemie, Schnelldorf, Germany; host or cells: porcine kidney (tissue-derived)
T1 sequence (P15145 1-963): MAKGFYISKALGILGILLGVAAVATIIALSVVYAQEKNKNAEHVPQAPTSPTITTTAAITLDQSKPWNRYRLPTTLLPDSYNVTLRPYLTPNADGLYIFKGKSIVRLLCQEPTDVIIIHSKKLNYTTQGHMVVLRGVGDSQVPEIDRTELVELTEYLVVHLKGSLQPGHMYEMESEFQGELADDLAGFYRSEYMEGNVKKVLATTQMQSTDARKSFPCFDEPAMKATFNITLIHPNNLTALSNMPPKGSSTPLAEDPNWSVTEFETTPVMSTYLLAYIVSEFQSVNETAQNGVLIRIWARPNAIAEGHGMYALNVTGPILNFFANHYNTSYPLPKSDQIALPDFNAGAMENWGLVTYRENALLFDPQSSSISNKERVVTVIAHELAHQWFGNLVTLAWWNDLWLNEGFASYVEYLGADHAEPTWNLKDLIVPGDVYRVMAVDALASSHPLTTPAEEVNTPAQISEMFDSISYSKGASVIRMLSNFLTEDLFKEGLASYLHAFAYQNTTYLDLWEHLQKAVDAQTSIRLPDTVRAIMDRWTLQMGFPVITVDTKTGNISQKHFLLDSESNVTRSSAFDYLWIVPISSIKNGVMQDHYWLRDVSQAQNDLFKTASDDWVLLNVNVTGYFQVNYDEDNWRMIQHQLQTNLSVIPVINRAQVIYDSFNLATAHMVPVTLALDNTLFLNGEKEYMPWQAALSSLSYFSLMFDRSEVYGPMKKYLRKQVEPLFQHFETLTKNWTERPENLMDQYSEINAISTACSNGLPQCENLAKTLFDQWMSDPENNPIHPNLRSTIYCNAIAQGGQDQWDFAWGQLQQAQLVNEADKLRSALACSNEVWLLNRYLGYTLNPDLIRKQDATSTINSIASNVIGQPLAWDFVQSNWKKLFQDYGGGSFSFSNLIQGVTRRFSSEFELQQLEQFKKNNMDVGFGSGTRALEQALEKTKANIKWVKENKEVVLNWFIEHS
As to the kind of experiment: Aminopeptidase (AP) incubation. In kind it is biochemical, porcine. How it is done:
Leucine aminopeptidase (AP; Mw = 280 kDa) from porcine kidney dissolved in AP buffer (50 mM Tris-HCl, 1 mM CaCl2, and 150 mM NaCl at pH 7.0) was used. L-leucine-p-nitroanilide (0.125 mg/mL) was used as control substrate. For AP digestion, 1 mg of purified lyophilized peptide was diluted in 2 mL AP buffer resulting in a final concentration of 0.5 mg/mL substrate. To evaluate the impact of AP concentration on peptide cleavage, AP was added at concentrations of 0 (negative control), 0.87, 8.7, 39, and 78 µg/mL and the samples were incubated at 37 °C for 1 h. For analysis of the AP incubation time, an AP concentration of 0.87 µg/mL was used and analyzed after 10, 20 min and 1, 2, 3, and 6 h. To stop the enzyme activity, samples were kept at 95 °C for 15 min. Afterwards, HPLC analyses were performed (as described in the Supplementary Information) to analyze the relative decrease of the main peak as compared to the negative control. Further details are given in the Supplementary Methods.
MMP -9) in a concentration of 0.4 ng/µL (50 µL) were mixed with MMP -8 buffer (37 µL), detection enz yme (5 µL) and substrate (8µL; all fro m Q uic kZ yme® ). The acti vi t y was meas ur ed for 12 hours in inter vals of 10 minutes. […]
Aminopeptidase (AP) incubation
Leucine A minopeptidase (AP; M w = 280 kD a) from porcine kidney dissolved in AP buffer (50 mM Tris-HCl, 1 mM CaCl2 and 150 mM NaCl at pH 7.0) was used. L-leu cin e-p-nitroan ilide (0.125mg/ mL) was used as control substr at e. […] Fo r anal ysis of the impact of AP incubation time, the identical conditions were used (AP concentration of 0.87 µg / mL (and analyzed after 10, 20 minutes and 1, 2, 3 and 6 hours ). To stop the enzymatic activit y, sa mp les wer e kept at 95 °C for 15 minutes. A fterwards, H PLC analys es were p erformed (as descr ibed) to an al yze th e relative d ecr eas e of the ma i n pea k as co mp ared to the negative control (see […]
V(B)/(V(A)+V(B)) = 5 % to 90 % over 10 min, V(B)/(V(A)+V(B)) = 90 % for 5 min, V(B)/(V(A)+V(B)) = 90 % to 5 % over 3 min. […] UV detection was measured at 254 nm. […]

In data set [2] the test system is MMP-8, then leucine aminopeptidase (AP). As to the kind of experiment: MMP-8 for 22 h, followed by exposure to AP in AP buffer. The conditions noted are these: porcine kidney (AP), 37 °C, up to 22 h MMP + 30 minutes AP.
Data set [3] relates to MMP-8. As to the kind of experiment: MMP-8 buffer (200 mM NaCl, 50 mM Tris-HCl, 5 mM CaCl2, 1 µM ZnCl2, 0.05% Brij 35 at pH 6.8–7.0). The conditions noted are these: human, 37 °C, up to 6 hours.
Data set [4] has as its system MMP-8. Nature of the data set: MMP-8 in MMP-8 buffer. The settings on record: human, 37 °C, up to 22 h.
Data set [5] concerns MMP-8. As to the kind of experiment: MMP-8. The settings on record: human, up to 12 h.
Data set [6] addresses T2, MMP-8 (Homo sapiens, UniProt P22894).
T2 construct: purchased EMD Millipore Corporation (Billerica, MA)
As to the kind of experiment: MMP-8 cleavage of soluble PCL conjugates (HPLC decrease of main peak). The settings on record: up to 12 h; control PCLs; MMP-8 buffer pH 6.8-7.0, 37 °C. In kind it is biochemical. Here is the method:
Pro-MMPs (e.g., MMP-8, MMP-1, or MMP-9; used at 0.1 mg/mL and >100.0 mU/mg based on the manufacturer’s information) were activated with p-aminophenylmercuric acetate (APMA) (8). For that, a 10 mM stock solution of APMA was freshly prepared in 0.1 M NaOH and a 10:1 (v/v) ratio of the respective proenzyme and the APMA solution (MMP:APMA) was incubated for 3 h at 37 °C. The activity was confirmed using the MMP-8 detection kit (QuickZyme Biosciences, Leiden, the Netherlands). A stock solution (90 µg/mL) of the activated MMP was prepared (used for cleavage studies on the PCL or the fully assembled microparticle-PCL-tastant setup (sensor), in MMP-8 buffer (200 mM NaCl, 50 mM Tris-HCl, 5 mM CaCl2, 1 µM ZnCl2, 0.05% Brij 35 at pH 6.8–7.0). All MMP experiments are described in detail in the Supplementary Methods. […]
in water ( v/v)) and eluent B (0.1 % TFA in 2:3 water-acetonitrile (v/v)) and a gradient from 33 to 80% elu ent B within 30 minutes. UV absorption was r ead at λ = 280 nm or 220 nm. After freezing the samples at -80 °C, fr eeze- drying was performed on a Christ Alpha 1 -4 de vi ce (Martin Christ Gefriertrocknungs anlagen, Osterode am Harz, G e r ma n y) at a desublimers ’ te mperature of - 60 ° C, pressure of 1.030 mbar and processing temperature of 19 °C.
Pro-MMPs (e. g. MMP -8, MMP -1 or MMP-9; adapted to 0.1 mg/mL and > 100.0 mU/mg based on manufacturer information and when appropriate) were activated with APMA 8. For that, a 10 mM stock solution of APMA in 0.1 M NaOH was freshly prepared and a 10:1 (v/v) ratio of the r especti ve proenzyme and APMA solution (MMP:APMA) was incubated for 3 h at 37 °C. The activity was conf ir med using the MMP-8 detection kit (Q uic kZ ym e® Biosciences, Leiden, Netherlands). A stock solution (90 µg/mL) of the activated MMP was prepared (used for cleavage studies on the pr ot eas e-cleavable linker (PCL; e.g. Figure 2) or the fully assemb led microparticle -PCL- t ast ant setup (sensor; e.g. Figure 3) , in MMP -8 buffer (200 mM NaCl, 50 mM Tris-H Cl, 5 mM C aC l2, 1 µM ZnCl2, 0.05 % Brij35 at pH 6.8- 7.0). A ll MMP -8 exp eriments wer e performed as follo ws. 25 µg of the sensor ( see chap ter : Peptide-coupling to beads (Sensor)) in 100 µL MMP-buffer or 1 mg of FP LC -purified and lyophilized PCL as described dissolved 2 mL M MP -buffer resulting in a final concentration of 0.5 mg/ mL substrate was used. […]
Figure 2A , 3, 4B ). […]
(sensor) in co mpar ison to negative controls (the negative controls for the PCL an d sensor exper i men ts were b y incubation without MMP under otherwise identical conditions). The relative d ecreas e of the PCL’s ma in peak was char act er ized by HPLC (PCL) or of the sensor’s fluorescence b y FACS (sensor) in comparison to control. […]

Where a SMILES comes first, the peptide text is derived from it. The star is where a group is joined. X1 = CC[N+](CC)(CC(=O)Nc1c(C)cccc1C)Cc1cccc(C(=O)*)c1

T2 sequence (P22894 101-467): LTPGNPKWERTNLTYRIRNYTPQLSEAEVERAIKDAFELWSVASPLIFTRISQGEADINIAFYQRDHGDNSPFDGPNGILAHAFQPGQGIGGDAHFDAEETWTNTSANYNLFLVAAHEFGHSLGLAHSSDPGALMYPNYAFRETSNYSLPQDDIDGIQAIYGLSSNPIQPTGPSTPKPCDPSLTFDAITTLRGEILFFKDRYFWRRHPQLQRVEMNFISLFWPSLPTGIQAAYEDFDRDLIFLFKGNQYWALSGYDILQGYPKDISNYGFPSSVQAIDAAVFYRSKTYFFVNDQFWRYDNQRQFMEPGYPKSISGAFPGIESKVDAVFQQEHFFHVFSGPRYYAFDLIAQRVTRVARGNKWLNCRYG

For the compound `CC[C@H](C)[C@H](N)C(=O)N[C@@H](C)C(=O)NCC(=O)N[C@@H](CCC(N)=O)C(=O)N[C@@H](CCCCNC(=O)c1cccc(C[N+](CC)(CC)CC(=O)Nc2c(C)cccc2C)c1)C(N)=O` [ID #5a] (H-IAGQK(X1)-NH2), the “cleavage of the peptide denatonium fragment by aminopeptidase” value in data set [1] (870 ng/mL AP, within 250 min, 0.5 mg/mL substrate, AP buffer pH 7.0, 37 °C, HPLC, n = 5) worked out at 80%.

On to A( N3)-GPQGIA GQ-K-De, for which the fragment found result in data set [2] is recorded as “denatonium coupled lysin”. In addition, the cleaved bond entry in the data set on MMP-8 [3] and in the data set on MMP-8 [4] was “G-I” throughout.

As for “A( N3)-GPQGIA GQ-K-De [ID #5, second-generation PCL denatonium conjugate]”, in data set [1] (AP 3.1 nM (0.87 µg/mL), 30 min, 37 °C, after 22 h with 1800 ng/mL MMP-8, LC-MS), the “effect of additional AP incubation after complete MMP-8 cleavage” value is recorded as “emerging peaks”.

Take Cf-GP QGIA GQ-A( N3)-Q: the cleaved bond result with MMP-8 [3] was “G-I”.

For Cf-GPLGI AGQ-A( N3)-Q, the not cleaved entry with MMP-8 [5] is given as “not cleaved by MMP-8 up to 12 h”.

As for “Cf-GPLGI AGQ-A( N3)-Q [ID #3, control PCL, exchange Q3L]”, the “cleavage by MMP-8” value on MMP-8 [6] is on record as “not cleaved”.

Consider Cf-GPQGYAGQ-A( N3)-Q, for which the not cleaved result with MMP-8 [5] is listed as “not cleaved by MMP-8 up to 12 h”.

For “Cf-GPQGYAGQ-A( N3)-Q [ID #4, control PCL, exchange I5Y]”, the “cleavage by MMP-8” value at MMP-8 [6] was “not cleaved”.

In the case of De-GPQG, the not cleaved entry in data set [2] is given as “no difference after additional AP incubation for 30 minutes”.
